From ChEMBL document CHEMBL1201862, “PubChem BioAssay data set” (2004)
Active and inactive are the calls of the source.

What was measured:
Cytochrome P450 3A4 = Cytochrome P450 3A4 (Homo sapiens, UniProt P08684);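 further: CYP3A4 tested as one member of a cytochrome P450 panel screen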
Cytochrome P450 2C19 = Cytochrome P450 2C19 (Homo sapiens, UniProt P33261); test: Cytochrome panel assay with activity outcomes. Panel member name: p450-cyp2c19 Compounds with AC50 equal or less than 10 uM are considered active; assay type: functional
[1] = inhibitors of intracellular T. cruzi replication, confirmation, NIH3T3 host cells, beta-gal luminescence (AID 2044); assay type: functional, cell-based;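 further: intracellular parasites grown in NIH/3T3 mouse fibroblasts as host cells; luminescent beta-galactosidase reporter signal from transgenic T. cruzi replicating inside host cells; inhibitors lower the luminescence signal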
[2] = cytotoxicity toward NIH3T3 fibroblasts, dose response, counter-screen, cell-based, ATP luminescence, mouse fibroblasts (AID 2010); assay type: functional;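 further: cells exposed to compound for about 90 hours before reading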
Cytochrome P450 2C9 = Cytochrome P450 2C9 (Homo sapiens, UniProt P11712)
H4 = test: Luminescence Cell-Based Dose Response HTS to Identify Activators of 5'UTR Stem-Loop Driven Prion Protein mRNA Translation in H4 Neuroglioblastoma Cells. [Related pubchem assays: 1829 (Project Summary), 1814 (Primary HTS)]; assay type: functional; conditions: Homo sapiens
[3] = Luminescence Cell-Based Dose Response HTS to Identify Activators of Luciferase Translation or Activity in H4 […] Cells. [Related pubchem assays: 1829 (Project Summary), 1814 (Primary HTS)]; assay type: functional

Cytochrome P450 2C9, sequence (P11712 whole entry): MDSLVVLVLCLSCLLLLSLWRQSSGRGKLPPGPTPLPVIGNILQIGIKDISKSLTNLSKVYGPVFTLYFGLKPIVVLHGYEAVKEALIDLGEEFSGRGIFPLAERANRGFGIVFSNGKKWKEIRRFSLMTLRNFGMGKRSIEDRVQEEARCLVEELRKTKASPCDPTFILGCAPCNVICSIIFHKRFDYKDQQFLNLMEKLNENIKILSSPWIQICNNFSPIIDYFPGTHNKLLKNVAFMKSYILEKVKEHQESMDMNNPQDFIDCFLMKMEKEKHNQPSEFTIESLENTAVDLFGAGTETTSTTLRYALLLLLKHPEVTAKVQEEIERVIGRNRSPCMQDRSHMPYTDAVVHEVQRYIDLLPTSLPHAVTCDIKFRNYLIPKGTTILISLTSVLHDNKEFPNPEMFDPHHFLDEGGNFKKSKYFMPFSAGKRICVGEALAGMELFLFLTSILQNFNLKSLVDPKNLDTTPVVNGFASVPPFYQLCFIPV
Cytochrome P450 3A4, sequence (P08684 whole entry): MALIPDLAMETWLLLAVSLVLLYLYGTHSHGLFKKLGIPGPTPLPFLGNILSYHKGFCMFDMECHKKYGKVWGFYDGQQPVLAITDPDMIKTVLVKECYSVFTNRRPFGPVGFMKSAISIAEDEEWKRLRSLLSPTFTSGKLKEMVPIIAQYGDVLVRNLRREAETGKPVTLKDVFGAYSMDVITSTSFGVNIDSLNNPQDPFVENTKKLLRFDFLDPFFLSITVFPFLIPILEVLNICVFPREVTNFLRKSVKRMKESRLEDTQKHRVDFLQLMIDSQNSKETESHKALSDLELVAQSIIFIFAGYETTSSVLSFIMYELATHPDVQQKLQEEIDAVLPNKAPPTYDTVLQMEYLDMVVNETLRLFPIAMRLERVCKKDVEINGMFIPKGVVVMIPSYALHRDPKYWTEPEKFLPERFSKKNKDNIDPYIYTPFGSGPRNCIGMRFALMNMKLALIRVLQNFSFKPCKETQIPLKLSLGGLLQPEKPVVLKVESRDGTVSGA
Cytochrome P450 2C19, sequence (P33261 whole entry): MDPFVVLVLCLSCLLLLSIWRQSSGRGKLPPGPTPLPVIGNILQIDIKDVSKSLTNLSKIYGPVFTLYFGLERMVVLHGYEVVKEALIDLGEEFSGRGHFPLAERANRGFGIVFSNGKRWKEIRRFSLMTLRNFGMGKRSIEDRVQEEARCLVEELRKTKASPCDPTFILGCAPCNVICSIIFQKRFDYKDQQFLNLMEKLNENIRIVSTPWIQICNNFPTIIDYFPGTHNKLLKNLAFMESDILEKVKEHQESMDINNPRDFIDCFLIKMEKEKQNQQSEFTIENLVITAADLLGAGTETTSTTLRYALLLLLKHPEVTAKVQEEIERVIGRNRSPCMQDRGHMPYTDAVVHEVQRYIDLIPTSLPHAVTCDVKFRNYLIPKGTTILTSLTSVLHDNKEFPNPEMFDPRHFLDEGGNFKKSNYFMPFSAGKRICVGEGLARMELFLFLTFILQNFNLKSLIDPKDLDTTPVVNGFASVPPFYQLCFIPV

In the case of `Cc1ccc(NC(=O)CN2C(=O)S/C(=C\c3cccn3C)C2=O)cc1`, the AC50 (Cytochrome P450 3A4) is reported as 7.08 µM (inconclusive).
In the case of `Cn1c(=O)c2c3c(sc2n2cnnc12)CCC3`, the AC50 (Cytochrome P450 2C19) is reported as “inconclusive”.
For `Cc1ccc(S(=O)(=O)c2nnn3c2nc(NC2CCN(Cc4ccccc4)CC2)c2ccccc23)cc1C`, the EC50 [1] was 1.24 µM (active) and the EC50 [2] was > 30 µM (not active).
In the case of `COCCNc1nc(-c2ccccc2C)nc2ccccc12`, the AC50 (Cytochrome P450 3A4) is reported as 12.6 µM (inconclusive).
With `CCCC[C@@H]1CN2[C@H](c3ccc(Br)cc3)[C@@H](C)CC[C@H]2C(=O)O1` the AC50 (Cytochrome P450 3A4) was 5.01 µM (inconclusive).
In the case of `CC(=O)NCCNc1ncnc2ccc(-c3cccc(NS(C)(=O)=O)c3)cc12`, the AC50 (Cytochrome P450 3A4) is reported as 7.94 µM (inconclusive).
With `CCC1Oc2ccc(C)cc2N(CC(=O)N(Cc2cccnc2)Cc2cccc(F)c2)C1=O` (stereo not drawn) the EC50 [1] was 0.145 µM (active) and the EC50 [2] was > 60 µM (not active).
With `COc1cccc(CNCCc2cccc(F)c2)c1OC` the EC50 [1] was 0.828 µM (active) and the EC50 [2] was > 60 µM (not active).
For `Cc1ccccc1-c1ccc2ncnc(N(C)C)c2c1`, the AC50 (Cytochrome P450 2C9) was 0.398 µM (inconclusive).
In the case of `Cn1c(=O)c2c(nc(Cc3ccccc3)n2CC(=O)O)n(C)c1=O`, the AC50 (Cytochrome P450 2C19) is reported as “inconclusive”.
With `O=S(=O)(c1ccccc1)N1CN2CN(C1)CN(S(=O)(=O)c1ccccc1)C2` the AC50 (Cytochrome P450 2C9) was 0.631 µM (inconclusive).
With `Cc1ccc(N[C@H](c2ccccc2)c2ccc3cccnc3c2O)cc1` the AC50 (Cytochrome P450 2C19; read-out: AC50) was 3.98 µM (inconclusive), the AC50 (Cytochrome P450 3A4) was 3.16 µM (inconclusive) and the AC50 (Cytochrome P450 2C9) was 3.98 µM (inconclusive).
In the case of `OCCN=c1cc(-c2ccccc2)oc2ccc(Cl)cc12`, the AC50 (Cytochrome P450 3A4) is reported as 10 µM (inconclusive).
In the case of `COc1ccc(C(=O)CCN(C)C)c2ccccc12`, the AC50 (Cytochrome P450 3A4) is reported as 0.316 µM (inconclusive).
In the case of `Cc1ccc2nc(N(CCN(C)C)C(=O)c3ccc4c(c3)OCCO4)sc2c1`, the EC50 [1] is reported as 0.104 µM (active) and the EC50 [2] is reported as > 60 µM (not active).
In the case of `CCn1c(SCc2ccc(C(=O)Nc3nccs3)cc2)nnc1-c1ccc(NC(C)=O)cc1`, the AC50 (Cytochrome P450 3A4) is reported as 1.12 µM (inconclusive).
In the case of `COc1ccc(/C=C/C(=O)N2c3ccccc3Sc3ccc(C(F)(F)F)cc32)cc1`, the EC50 [1] is reported as 2.8 µM (active) and the EC50 [2] is reported as > 60 µM (not active).
In the case of `Cc1cccc(CNc2ncncc2-c2ccccc2C)c1`, the AC50 (Cytochrome P450 2C9) is reported as 1.26 µM (inconclusive).
For `Cc1cccc(N/C=C(\[N+](=O)[O-])S(=O)(=O)c2ccccc2)c1C`, the EC50 [1] was > 60 µM (not active) and the EC50 [2] was > 60 µM (inconclusive).
In the case of `COc1cc(C(=O)NC(=S)Nc2ccc(Cl)c(C(=O)O)c2)cc(OC)c1OC`, the AC50 (Cytochrome P450 2C9) is reported as 28.2 µM (inconclusive).
With `CCOc1ccc(N2C(=O)/C(=C/c3cc(OC)c(OC)c(OC)c3)N(CC(=O)OC)C2=S)cc1` the AC50 (Cytochrome P450 3A4) was 15.8 µM (inconclusive) and the AC50 (Cytochrome P450 2C9) was 1.41 µM (inconclusive).
In the case of `CN[C@@H](c1ccncc1)[C@@H](NC)c1ccncc1`, the AC50 (Cytochrome P450 2C19; read-out: AC50) is reported as 3.16 µM (inconclusive).
With `Nc1ccc(C(=O)N/N=C/c2ccccc2)cc1` the AC50 (Cytochrome P450 2C19; read-out: AC50) was 15.8 µM (inconclusive), the AC50 (Cytochrome P450 3A4) was 15.8 µM (inconclusive) and the AC50 (Cytochrome P450 2C9) was 0.282 µM (inconclusive).
For `Cc1ccc(-n2c(C)cc(C(=O)COC(=O)c3cccnc3O)c2C)cc1`, the EC50 (H4) was > 120 µM (not active).
In the case of `CCCCC1CC(/C(C)=N/NC(N)=O)OC1=O` (stereo not drawn), the AC50 (Cytochrome P450 2C9) is reported as 20 µM (inconclusive).
In the case of `Nc1c(C(=O)Nc2ccccc2)c2nc3ccccc3nc2n1-c1ccc(O)cc1`, the EC50 [1] is reported as 2.07 µM (active) and the EC50 [2] is reported as 15.9 µM (active).
In the case of `COCCn1c(=O)c(-c2ccccc2)nc2cnc(OCc3ccccc3)nc21`, the AC50 (Cytochrome P450 2C19; read-out: AC50) is reported as 20 µM (inconclusive).
For `CCOc1ccc(-n2c(SCc3nc(-c4ccc(C)cc4)no3)nnc2-c2ccncc2)cc1`, the EC50 [1] was 1.31 µM (active) and the EC50 [2] was 6.76 µM (active).
With `c1ccc(Cn2c3ccccc3c3nnc(SCCN4CCCCC4)nc32)cc1` the EC50 [1] was 0.489 µM (active) and the EC50 [2] was > 60 µM (not active).
For `Cn1c(-c2nnn(-c3ccc(F)cc3)n2)cc2ccccc21`, the EC50 (H4) was 36.6 µM (active).
In the case of `CCOc1ccc(C(=O)C2=C(O)C(=O)N(CCOCCO)C2c2ccccc2OC)cc1` (stereo not drawn), the AC50 (Cytochrome P450 2C19; read-out: AC50) is reported as 25.1 µM (inconclusive).
For `COc1ccccc1CN1CCN(Cc2nc(-c3cccs3)no2)CC1`, the EC50 [1] was 0.841 µM (active) and the EC50 [2] was > 60 µM (not active).
With `O=C(CSc1nc(C2CC2)nc2ccccc12)N1c2ccccc2Sc2ccccc21` the EC50 [1] was 4.43 µM (active) and the EC50 [2] was > 60 µM (not active).
With `Cc1cccc(C(=O)c2ccccc2C(=O)O)c1O` the AC50 (Cytochrome P450 3A4) was 25.1 µM (inconclusive) and the AC50 (Cytochrome P450 2C9) was 0.1 µM (inconclusive).
With `N=C(NC(=O)c1ccccc1F)Nc1nc2ccccc2o1` the AC50 (Cytochrome P450 2C19; read-out: AC50) was 22.4 µM (inconclusive).
In the case of `Cc1cc(N2C(=O)C(O)=C(C(=O)c3cccs3)C2c2cccc(O)c2)no1` (stereo not drawn), the AC50 (Cytochrome P450 2C19; read-out: AC50) is reported as 31.6 µM (inconclusive).
In the case of `COc1ccc2[nH]c3c(c2c1)CCN1C(=O)N([C@@H](C)C(=O)NC2CCN(Cc4ccccc4)CC2)C(=O)[C@]31C`, the EC50 [1] is reported as 0.122 µM (active) and the EC50 [2] is reported as > 60 µM (not active).
In the case of `COCCn1c(=O)c(C)nc2cnc(Oc3ccccc3)nc21`, the AC50 (Cytochrome P450 2C19; read-out: AC50) is reported as 39.8 µM (inconclusive) and the AC50 (Cytochrome P450 3A4) is reported as 25.1 µM (inconclusive).
In the case of `O=C(O)/C(Cc1ccc([N+](=O)[O-])cc1)=N/O`, the AC50 (Cytochrome P450 2C19; read-out: AC50) is reported as 5.01 µM (inconclusive).
With `Cc1ccsc1C(=O)C1CCCN(Cc2cnc(N3CCOCC3)s2)C1` (stereo not drawn) the EC50 [1] was 0.146 µM (active) and the EC50 [2] was > 60 µM (not active).
With `Cc1cc(/C=C(\C#N)C(=O)NC2CC2)c(C)[nH]1` the EC50 [3] was 0.857 µM (active) and the EC50 (H4) was > 120 µM (not active).
With `COc1ccc(C(CC(=O)Nc2cc(OC)cc(OC)c2)n2cccc2)cc1` (stereo not drawn) the EC50 [1] was 2.45 µM (active) and the EC50 [2] was > 60 µM (not active).
In the case of `COC(=O)Cn1cc(/C=N/NC(=O)c2ccc(C#N)cc2F)c2ccccc21`, the AC50 (Cytochrome P450 2C19; read-out: AC50) is reported as 22.4 µM (inconclusive) and the AC50 (Cytochrome P450 2C9) is reported as 8.91 µM (inconclusive).
With `CCn1nnnc1SCC(=O)c1ccc2c(c1)OCCO2` the AC50 (Cytochrome P450 2C9) was 17.8 µM (inconclusive).
With `Cc1ccc(N=Nc2c(=O)[nH]n3c(C)cc(C)nc23)cc1` the AC50 (Cytochrome P450 2C19; read-out: AC50) was 39.8 µM (inconclusive) and the AC50 (Cytochrome P450 3A4) was 25.1 µM (inconclusive).
With `COc1ccc(S(=O)(=O)N2CCCN(CC(=O)Nc3ccc(OC)c(Cl)c3)CC2)cc1` the AC50 (Cytochrome P450 2C9) was 39.8 µM (inconclusive).
With `O=C(N/N=C/c1c(Nc2cccc(C(F)(F)F)c2)nc2ccccn2c1=O)c1ccccc1` the AC50 (Cytochrome P450 2C9) was 12.6 µM (inconclusive).
For `COc1ccc(Cc2noc(CN3CCCN(Cc4ccc(F)cc4)CC3)n2)cc1OC`, the EC50 [1] was 0.248 µM (active) and the EC50 [2] was > 60 µM (not active).
For `c1ccc(CNc2ncncc2-c2ccc3c(c2)OCO3)cc1`, the AC50 (Cytochrome P450 2C9) was 0.316 µM (inconclusive).
With `O=c1c(-c2cccc(F)c2)nc2cncnc2n1-c1ccccc1` the AC50 (Cytochrome P450 3A4) was 20 µM (inconclusive).
With `COc1ccc(Cc2nc3cc(S(=O)(=O)N4CCOCC4)ccc3[nH]2)cc1OC` the AC50 (Cytochrome P450 2C19; read-out: AC50) was 25.1 µM (inconclusive).
For `CC1(C)C([N+](=O)[O-])C(c2ccc(Cl)cc2)NC(c2ccc(Cl)cc2)C1[N+](=O)[O-]` (stereo not drawn), the EC50 [1] was 2 µM (active) and the EC50 [2] was > 60 µM (inconclusive).
